Results from PMC12957798, “Adaptation of plateau frog peptide: From antimicrobial to angiogenic and proliferative functions” (Journal of Advanced Research, 2025).
Entries after “also recorded” stand apart in the source; their conditions may differ.

Assays:
[1] = test system: Acinetobacter baumannii (ATCC 19606), Candida auris (ATCC 10231), Pseudomonas aeruginosa (ATCC 27853) and Staphylococcus aureus (ATCC 6538); test: Disk diffusion (paper-disc agar-diffusion) antimicrobial test; type: cell-based; details: SC17-2 10 mg/mL, 1 mL on filter paper, 24 h, 37 °C, b51 statement also rests on the MIC test
Procedure: Disk diffusion and broth microdilution tests were selected as the standard method for screening the antimicrobial activity of SC17-2 [58]. The experiments were conducted utilising the disk diffusion test, whereby the following strains were examined: Acinetobacter baumannii (ATCC 19606), Candida auris (ATCC 10231), Pseudomonas aeruginosa (ATCC 27853) and Staphylococcus aureus (ATCC 6538). The concentration of bacterial suspension was then adjusted to 1 × 10^5 CFU/mL with saline, after which it was set aside. Separate plates containing bacterial agar were prepared: MH agar was utilised for the isolation of bacterial samples, while Sartorius agar was employed for the isolation of fungal samples. The suspensions containing the aforementioned microorganisms were then spread on the designated plates at a rate of 1:1000. A sterile filter paper was used to dispense 1 mL of SC17-2 (10 mg/mL), with equal amounts of PBS and Vancomycin/Colistin serving as controls. The plates were then subjected to the appropriate temperature (24 h at 37 °C) and subsequently observed under a camera to ascertain the results.

HUVEC cells = test: In vitro wound healing (migration) assay, HUVEC; type: cell-based, Human; details: SC17-2 concentrations exceeding 10 μg/mL, 16 h
HaCaT cells = test: In vitro UVB damage repair (CCK-8); type: cell-based, Human
Procedure: HaCaT cells were inoculated in 24-well plates at 1 × 10^4 cells/well and incubated for 24 h to ensure uniformity and number of cells per well. Prior to UVB irradiation, cells were washed with phosphate buffer solution (PBS) and covered with 300 μL of PBS. The blank control group was wrapped through tinfoil to eliminate the effects caused by UVB irradiation and subsequently irradiated through […]. Immediately after irradiation, PBS was replaced with DMEM/F12 medium and 20 and 5 μg/mL of peptides SC17-2 were added, respectively, and incubated for 24 h. After that, 10 μL of CCK-8 was added to each well, and incubated for 2 h. The absorbance values of each well were measured at 450 nm.

CD31 = CD31 immunofluorescence of mouse wound sections (angiogenesis); type: in vivo; details: 13 days
Procedure: Use scissors to remove the tissue around the wound, put the tissue into 4 % paraformaldehyde solution, put the tissue in 4 °C for 24 h, use a tissue embedding machine for embedding, use a rotary slicer to section the tissue, put the section into environmentally friendly dewaxing solution to dewax for 3 times, 10 min each time, then use anhydrous ethanol to treat the section for 3 times, 5 min each time, rinse with distilled water and then repair the section by EDTA antigen repair solution. The slides were then incubated overnight at 4 °C with Anti-CD31 Mouse mAb as primary antibody and at room temperature for 50 min, protected from light, in PBS (pH 7.4), shaken and washed 3 times for 5 min each time on a decolourising shaker. Incubate at room temperature for 10 min. Images were captured using a scanner (Pannoramic MIDI), and graphics were processed using imageJ. The results were calculated as follows: relative staining area of blood vessels = An/average (Ac), An indicates the fluorescence staining area of CD31 obtained from the current sample by ImageJ statistics, […], and Ac is the fluorescence staining area of CD31 of all control samples.
ImageJ was used to quantify the percentage of stained area for Masson and the percentage of fluorescent area for CD31. All data were analysed by GraphPad Prism 9.5 software. Data were expressed as mean ± SEM. Comparisons between multiple groups were performed by using one-way analysis of variance (ANOVA) and Tukey's multiple comparison test. Differences between groups were commonly tested by ANOVA, P < 0.05 was considered statistically significant.

(p-Smad2/3)/(Smad2/3) = test: Western blot p-Smad2/3 / Smad2/3 in HaCaT; type: cell-based, Human; details: SC17-2 20 μg/mL, 24 h (16 h elsewhere in the source), n = 3
Procedure: HaCaT was inoculated in 12-well plates (2 × 10^5 cells/well) and cultured for 24 h. Afterwards, HaCaT cells were treated with equal amounts of VEGF, SC17-2, and PBS for 16 h. Cells were washed with PBS, after which the samples were collected and added to 1 mL of RIPA lysate containing protease inhibitors and phosphatase inhibitors and placed on ice for 30 min. Allowed to be after sufficient lysis, the supernatant was centrifuged and collected to determine the protein concentration using a nanodrop, followed by the addition of SDS sampling buffer and heating at 95 °C for 10 min. Samples were loaded and run on a gel block based on the determined sample concentration, and then electrotransferred onto a 0.45 μm PVDF membrane. […] After washing three times with TBST, proteins were visualised and scanned by enhanced chemiluminescence using the ChemiDoc XRS imaging system (Bio-Rad, Hercules, CA, USA).

EGF mRNA = test: qPCR EGF mRNA in HaCaT; type: cell-based, Human; details: SC17-2 20 μg/mL, n = 6
Procedure: (§1) HaCaT cells were treated as above, washed twice with PBS and lysed using Trizol for 5 min, after which 200 μL of chloroform was added and shaken vigorously for 30 s. The cells were centrifuged for 15 min to separate the upper and lower layers (12,500 g, 4 °C). The supernatant was vortexed with an equal amount of isopropanol and left to stand for 10 min, and then centrifuged again under the same conditions to retain only the white precipitate. 500 μL of 75 % ethanol was added and centrifuged (12000 rpm, 4 °C, 10 min) and the operation was repeated twice. Afterwards, DEPC was used for dissolution and the concentration was determined by nanodrop. One-step reverse transcription to DNA was performed using 5 × MIX, after which primers and 2 × MIX were added and placed. qPCR was performed (LightCycler96, F. Hoffmann-La Roche, Swiss).

TGF-β1 mRNA = test: qPCR TGF-β1 mRNA in HaCaT; type: cell-based, Human; details: SC17-2, HaCaT
Procedure: as §1

EGFR = EGFR (Homo sapiens, UniProt P00533); test: Bio-Layer Interferometry (BLI); type: binding
Procedure: Prepare 20 μg/mL of EGFR protein solution (solvent 0.1 % PBS-Tween), and different concentrations of SC17-2 (5, 10, 20 μg/mL) dissolved using PBST. Biotin was added and incubated at room temperature for 30 min according to the instructions, and the corresponding probes were soaked in PBST for 10 min. The assay was carried out according to the BLI predefined procedure (Octet K2, ForteBio, USA), followed by calculations using the accompanying software, and graphpad was used for graphing.

[2] = Circular dichroism spectroscopy; type: physicochemical

SFMPLSIPIMCKMLSKC [SC17-2, peptide of the pleskein family from the skin transcriptome of the frog Nanorana parkeri, made by solid-phase synthesis]
antimicrobial (bacteriostatic) activity [1]: no bacteriostatic activity; also recorded: does not appear to have antimicrobial activity | HUVEC migration (HUVEC cells): notable enhancement | UVB damage repair compared with non-irradiated group (HaCaT cells; SC17-2 20 μg/mL vs group not irradiated): considerably less pronounced | attenuation of UVB-induced damage (HaCaT cells; SC17-2 20 μg/mL, 24 h after 5 J/cm UVB, CCK-8, vs saline after irradiation): capable of effectively removing the damage caused by UVB radiation | attenuation of cell injuries after UVB irradiation (HaCaT cells; SC17-2 20 and 5 μg/mL, 24 h, CCK-8, n = 3): could attenuate the cell injuries | number of blood vessels in wounds, dose dependence (CD31; CD31 images): number of blood vessels in the wounds increased with the increase of SC17-2 concentration | blood vessel formation (CD31 staining) (CD31; SC17-2 5 μg/mL, n = 9): promoted blood vessel formation | proangiogenic effect compared with VEGF (CD31 staining) (CD31; SC17-2 10 and 20 μg/mL, n = 9): more pronounced than that of VEGF | Smad2/3 phosphorylation ((p-Smad2/3)/(Smad2/3)): significantly increased Smad2/3 phosphorylation | mRNA expression of EGF (EGF mRNA): significantly elevated | TGF-β1 expression (qPCR) (TGF-β1 mRNA): simultaneous increase | EGFR binding, dose dependence (EGFR): binds in a dose-dependent manner | secondary structure composition ([2]; 0 mM (H2O) and 60 mM SDS): primarily of random coil and β-sheet structures, with only trace amounts of γ-turn and α-helix structures | secondary structure, change with SDS ([2]; 0 mM (H2O) vs 60 mM SDS): remained largely unchanged
